According to US5919823A, “Treatment of secondary movement disorders using large neutral amino acids” (The Research Foundation For Mental Hygiene, priority 1997, dated 1999):
Where two headings read alike, the source gives them in different places. Blank lines part the entries; values can stand above or below the compound they belong to.

Assays:
[1] = cited from earlier work
[2] = in vivo; cited from earlier work
[3] = Plasma large neutral amino acid and phenylethylamine levels, fasting and 2 hours after protein challenge (Study Two); conditions: for Plasma level, Post-loading / Plasma LNAA Ratio, Post-loading: 2 hours after protein challenge; for Plasma level, Post-loading / Plasma level, Fasting / Plasma LNAA Ratio, Post-loading / Plasma LNAA Ratio, Fasting: mean ± SD
Experimental: Blood samples were drawn from patients after an overnight fast and 2 hours after the ingestion of a protein challenge. This challenge was served in the form of a breakfast which consisted of orange juice, a cheese omelette, ham, a waffle and coffee.
The blood samples were assayed for the levels of plasma large neutral amino acids; phenylalanine, tyrosine, tryptophan, alanine, isoleucine, leucine, valine, histidine, and threonine, and for the levels of phenylethylamine. The latter was also measured because it is a major metabolite of phenylalanine and considered to be a neuromodulator.
The plasma amino acids, with the exception of tryptophan, were analyzed by phenylisothiocyanate (PITC) derivation followed by HPLC. The analysis of tryptophan was performed using HPLC with spectrofluormetric detection.
The plasma values of the amino acids were studied both as actual levels and as the ratio of phenylalanine level to the level of the other large neutral amino acids in the plasma. This ratio serves as an index of the entry of phenylalanine into the brain, which accounts for the competition of the other large neutral amino acids (LNAA) with phenylalanine (Phe) at the blood brain barrier, as discussed. previously. This ratio is calculated as follows: [formula]

[4] = Multi-challenge study, videotaped TD movement counts (Study Four, Example 2); format: in vivo, male patients
Experimental: A single patient was exposed over a period of several weeks to multiple dietary challenges, at the rate of one baseline day and one challenge day per week.
The baseline days were Tuesdays and the challenge days were Wednesdays.
On both Tuesdays and Wednesdays a videotaped evaluation procedure for TD was conducted and videotaped TD movement count sessions were held. These were 2 hours post-coffee on Tuesday and 2 hours post challenge on Wednesday. Movement counts were blindly rated from the videotapes by the present inventor.
Evaluation sessions were conducted at the same time on both days with patients fasting (except for one cup of decaffeinated coffee) on the baseline days.
A carbohydrate challenge breakfast; 223 grams of carbohydrates, 1369 calories, less than 4% protein.
A 100 mg/kg challenge of Phe.
A BCAA dietary supplement as follows:
a) 2 patients had 209 mg/kg doses of BCAA powder given in orange juice
The BCAA powder given in orange juice and in the flavored formulation at 150 mg/kg and 275 mg/kg consisted of 30 parts--valine, 30 parts-isoleucineand 40 parts-leucine.

[5] = Phenylalanine challenge, Parkinsonism symptoms (Study Three, Example 4); format: in vivo, patients (psychotic males and females); conditions: 100 mg/kg
Experimental: (§1) A third study (Study Three) was a large scale replication of Study Two with some improved technical methodology; most importantly, the switch from a protein challenge to a phenylalanine challenge and the weight standardization of the phenylalanine challenge (100 mg/kg). This investigation was conducted in 209 psychotic males and 103 psychotic females. […] This finding was independent of the age of the patient.
(§2) As shown below, the data from this study has also enabled the present inventor to study the effect of the phenylalanine challenge on the symptom levels of Parkinsonism, akathisia and tardive dystonia. This information is important in justifying the usefulness of large neutral amino acid treatments for these disorders.
185 (59.3%) of the study patients made criterion for a case of Parkinsonism; […]. […] The large percentage (88.6%) of patients whose symptoms were impacted by the phenylalanine challenge supports the value of plasma large neutral amino acid manipulation in the treatment of this disorder. Further, as is seen in Table 3 below, this pattern of change was quite similar whether or not the patient had coexisting tardive dyskinesia. Though there is a case by case aspect to treatment success which makes prediction difficult, one can set forth some predictive generalizations as below. A further caveat is that because of the possible case of the worsening of a coexisting disorder the clinician must first treat the disorder that is causing the patient the most difficulty. Difficulty would be defined by some interaction between severity of symptom and disorder.

[6] = Phenylalanine challenge, akathisia symptoms (Study Three, Example 4); format: in vivo, patients (psychotic males and females); conditions: 100 mg/kg
Experimental: as §1, §2
The large percentage (81.0%) of patients whose symptoms were impacted by the phenylalanine challenge supports the value of plasma large neutral amino acid manipulation in the treatment of this disorder. […] Patients without coexisting TD were more likely to show a higher level of symptom worsening than those with coexisting TD. As said for Parkinsonism, above, though it is the case that there is a case by case aspect to treatment success which makes prediction difficult, one can set forth some predictive generalizations as below: […]

[7] = Phenylalanine challenge, tardive dystonia symptoms (Study Three, Example 4); format: in vivo, patients (psychotic males and females); conditions: 100 mg/kg
Experimental: as §1, §2
Thus, more than a majority of patients (57.9%) did respond to the phenylalanine challenge. […] Patients without coexisting TD were much more likely to improve their tardive dystonia symptom status after a phenylalanine challenge than patients with coexisting TD, while patients with coexisting TD were much more likely to show a higher level of symptom worsening than those without coexisting TD.

[8] = Plasma phenylalanine response to phenylalanine challenge in TD-yes and TD-no patients (Study Three); format: in vivo, psychotic males and females; conditions: 100 mg/kg, TD Yes vs TD No patients
Excerpt: In this work (Study Two and Three) the plasma level tells us the actual level of phenylalanine in the blood and the phenylalanine/large neutral amino acid ratio gives us a marker relative to the other large neutral amino acids. This ratio thus provides information on brain levels of phenylalanine, or more specifically, the penetrance past the blood brain barrier of phenylalanine. This is so because it is known that phenylalanine competes with the other large neutral amino acids, such as tyrosine, tryptophan, isoleucine, leucine and valine for entry into the brain across the blood brain barrier.

[9] = after challenge administration, most of the subjects; cited from earlier work
[10] = of the large neutral amino acids; cited from earlier work
serotonin receptors = conditions: animals; cited from earlier work
[11] = in vivo; cited from earlier work; remark: listed apart in the source
[12] = 2 hours, ALL (n=185), listed as Phenylalanine
[13] = TD Symptom Persistence group (n = 15)
[14] = TD Symptom Remission group (n = 15)

Structure (SMILES): N[C@@H](Cc1c[nH]c2ccc(O)cc12)C(=O)O [5-hydroxytryptophan]
- effect on TD ([1]; seven patients, concomitant administration with carbidopa): no change in TD

Structure (SMILES): NC(Cc1c[nH]c2ccccc12)C(=O)O [D-L tryptophan]
- effect on TD ([1]; 4 patients): no change in TD

Structure (SMILES): CN1CCN(C2=Nc3cc(Cl)ccc3Nc3ccccc32)CC1 [clozapine]
- movement disorder side-effects [2]: less likely to result in movement disorder side-effects
- other side effects [2]: carries the risk of other serious life-threatening side effects

Structure (SMILES): N[C@@H](Cc1ccccc1)C(=O)O [phenylalanine]
- percentage change in plasma level ([3]; in vivo): larger percentage changes
- post challenge phenylalanine to LNAA ratio ([3]; in vivo): significantly higher
- TD symptom change ([4]; Patient B, coexisting TD and tardive dystonia): did not show a symptom increase
- patients with an increase in TD symptom severity ([4]; after Phe challenge 100 mg/kg): three out of four
- increase in TD symptom severity, range over patients ([4]; after Phe challenge 100 mg/kg, three patients): 69% to 440
- patients with an increase in TD symptom severity ([4]; after Phe challenge 100 mg/kg, listed as Phe): Three
- patients whose Parkinsonism symptoms were impacted ([5]; 2 hours): 88.6%
- Parkinsonism BETTER, % ([5]; 2 hours, ALL (n=185)): 42.7%
- Parkinsonism BETTER, No. ([5]; 2 hours, ALL (n=185)): 79 patients
- Parkinsonism NO CHANGE, % ([5]; 2 hours, ALL (n=185)): 11.3%
- Parkinsonism NO CHANGE, No. ([5]; 2 hours, ALL (n=185)): 21 patients
- Parkinsonism WORSE, % ([5]; 2 hours, ALL (n=185)): 45.9%
- Parkinsonism WORSE, No. ([5]; 2 hours, ALL (n=185)): 85 patients
- Parkinsonism WORSE, % ([5]; 2 hours, ALL (n=185), listed as Phe): 46%
- Parkinsonism NO CHANGE, % [5, 12]: 11.4%
- Parkinsonism WORSE, % [5, 12]: 45.9%
- Parkinsonism BETTER, % ([5]; TD-NO (n=84)): 40.5%
- Parkinsonism BETTER, No. ([5]; TD-NO (n=84)): 34
- Parkinsonism NO CHANGE, % ([5]; TD-NO (n=84)): 13.1%
- Parkinsonism NO CHANGE, No. ([5]; TD-NO (n=84)): 11
- Parkinsonism WORSE, % ([5]; TD-NO (n=84)): 46.4%
- Parkinsonism WORSE, No. ([5]; TD-NO (n=84)): 39
- Parkinsonism BETTER, % ([5]; TD-YES (n=101)): 44.5%
- Parkinsonism BETTER, No. ([5]; TD-YES (n=101)): 45
- Parkinsonism NO CHANGE, % ([5]; TD-YES (n=101)): 9.9%
- Parkinsonism NO CHANGE, No. ([5]; TD-YES (n=101)): 10
- Parkinsonism WORSE, % ([5]; TD-YES (n=101)): 45.6%
- Parkinsonism WORSE, No. ([5]; TD-YES (n=101)): 46
- patients whose akathisia symptoms were impacted ([6]; 2 hours): 81.0%
- Akathisia BETTER, % ([6]; 2 hours, ALL (n=105)): 33.4%
- Akathisia BETTER, No. ([6]; 2 hours, ALL (n=105)): 35 patients
- Akathisia NO CHANGE, % ([6]; 2 hours, ALL (n=105)): 19.0%
- Akathisia NO CHANGE, No. ([6]; 2 hours, ALL (n=105)): 20 patients
- Akathisia WORSE, % ([6]; 2 hours, ALL (n=105)): 47.6%
- Akathisia WORSE, No. ([6]; 2 hours, ALL (n=105)): 50 patients
- Akathisia BETTER, % ([6]; TD-NO (n=42)): 23.8%
- Akathisia BETTER, No. ([6]; TD-NO (n=42)): 10
- Akathisia NO CHANGE, % ([6]; TD-NO (n=42)): 16.7%
- Akathisia NO CHANGE, No. ([6]; TD-NO (n=42)): 7
- Akathisia WORSE, % ([6]; TD-NO (n=42)): 59.5%
- Akathisia WORSE, No. ([6]; TD-NO (n=42)): 25
- Akathisia BETTER, % ([6]; TD-YES (n=63)): 39.7%
- Akathisia BETTER, No. ([6]; TD-YES (n=63)): 25
- Akathisia NO CHANGE, % ([6]; TD-YES (n=63)): 21.6%
- Akathisia NO CHANGE, No. ([6]; TD-YES (n=63)): 13
- Akathisia WORSE, % ([6]; TD-YES (n=63)): 39.7%
- Akathisia WORSE, No. ([6]; TD-YES (n=63)): 25
- patients whose tardive dystonia responded to the phenylalanine challenge ([7]; 2 hours): 57.9%
- Tardive dystonia BETTER, % ([7]; 2 hours, ALL (n=19)): 21.0%
- Tardive dystonia BETTER, No. ([7]; 2 hours, ALL (n=19)): 4 patients
- Tardive dystonia NO CHANGE, % ([7]; 2 hours, ALL (n=19)): 42.1%
- Tardive dystonia NO CHANGE, No. ([7]; 2 hours, ALL (n=19)): 8 patients
- Tardive dystonia WORSE, % ([7]; 2 hours, ALL (n=19)): 36.9%
- Tardive dystonia WORSE, No. ([7]; 2 hours, ALL (n=19)): 7 patients
- Tardive dystonia BETTER, % ([7]; TD-NO (n=5)): 60.0%
- Tardive dystonia BETTER, No. ([7]; TD-NO (n=5)): 3
- Tardive dystonia NO CHANGE, % ([7]; TD-NO (n=5)): 40.0%
- Tardive dystonia NO CHANGE, No. ([7]; TD-NO (n=5)): 2
- Tardive dystonia WORSE, % ([7]; TD-NO (n=5)): 0.0%
- Tardive dystonia WORSE, No. ([7]; TD-NO (n=5)): none
- Tardive dystonia WORSE, No. ([7]; TD-NO (n=5), listed as Phenylalanine): 0
- Tardive dystonia BETTER, % ([7]; TD-YES (n=14)): 7.1%
- Tardive dystonia BETTER, No. ([7]; TD-YES (n=14)): 1
- Tardive dystonia NO CHANGE, % ([7]; TD-YES (n=14)): 42.9%
- Tardive dystonia NO CHANGE, No. ([7]; TD-YES (n=14)): 6
- Tardive dystonia WORSE, % ([7]; TD-YES (n=14)): 50.0%
- Tardive dystonia WORSE, No. ([7]; TD-YES (n=14)): 7
- plasma phenylalanine and phenylalanine/LNAA ratio after phenylalanine challenge [8]: statistically significant higher levels
- time of peak phenylalanine plasma level [9]: 2 h
- affinity for the blood brain barrier [10]: highest affinity for the blood brain barrier

Structure (SMILES): NCCc1ccccc1 [phenylethylamine, reference compound]
- Plasma level, Percent Change (Postloading/Fasting) [3, 13]: +14.7%
- Plasma level, Post-loading [3, 13]: 0.0951 ± 0.0192 ng/mL
- Plasma level, Fasting [3, 13]: 0.0829 ± 0.0198 ng/mL
- Plasma level, Percent Change (Postloading/Fasting) [3, 14]: +5.9%
- Plasma level, Post-loading [3, 14]: 0.0927 ± 0.0218 ng/mL
- Plasma level, Fasting [3, 14]: 0.0875 ± 0.0305 ng/mL
- phenylethylamine level change ([3]; persistence group, but not in remission group): significantly increased
- motor effect (serotonin receptors): produces a motor syndrome which can be blocked by serotonin antagonists

Structure (SMILES): CC(C)NCC(O)COc1cccc2ccccc12 (centres unmarked) [propranolol]
- treatment of neuroleptic-induced akathisia [11]: successful in some patients

- decrease in tryptophan/LNAA ratio, greater in remittance group ([3]; in vivo): 35%
- magnitude of decrease in tryptophan/LNAA ratio ([3]; in vivo): significantly greater
Structure (SMILES): N[C@@H](Cc1c[nH]c2ccccc12)C(=O)O [tryptophan]
- effect on TD ([1]; two case reports): reduction of TD symptoms

Structure (SMILES): N[C@@H](Cc1ccc(O)cc1)C(=O)O [tyrosine]
- Plasma LNAA Ratio, Percent Change (Postloading/Fasting) [3, 13]: 0%
- Plasma level, Percent Change (Postloading/Fasting) [3, 13]: +23.1%
- Plasma LNAA Ratio, Post-loading [3, 13]: 0.103 ± 0.012
- Plasma level, Post-loading [3, 13]: 85.3 ± 22.6 µM
- Plasma LNAA Ratio, Fasting [3, 13]: 0.103 ± 0.012
- Plasma level, Fasting [3, 13]: 69.3 ± 14.8 µM
- Plasma LNAA Ratio, Percent Change (Postloading/Fasting) [3, 14]: 0%
- Plasma level, Percent Change (Postloading/Fasting) [3, 14]: +30.1%
- Plasma LNAA Ratio, Post-loading [3, 14]: 0.090 ± 0.020
- Plasma level, Post-loading [3, 14]: 84.3 ± 23.5 µM
- Plasma LNAA Ratio, Fasting [3, 14]: 0.090 ± 0.022
- Plasma level, Fasting [3, 14]: 64.8 ± 17.1 µM
- percentage change in plasma level ([3]; symptom remission group vs persistence group, 30 males): larger percentage changes

- percentage change in plasma level ([3]; in vivo): larger percentage changes
- valine/LNAA ratio change ([3]; in vivo): increased significantly
Structure (SMILES): CC(C)[C@H](N)C(=O)O [valine]
